Laboratory results: US10781215B2, “Heterobicyclic compounds useful as modulators of IL-12, IL-23 and/or IFNα responses” (BRISTOL-MYERS SQUIBB COMPANY, priority 2016, dated 2020)

What was measured:
[1] = target: T1, recombinant human His-tagged Tyk2 pseudokinase domain (His-TVMV-Tyk2, 575-869) (Homo sapiens, UniProt P29597); assay: Probe displacement assay (HTRF format); format: binding; settings: fluorescein labeled probe, Tyk2 pseudokinase domain 0.5 nM
T1 construct: made in house
Procedure: To 10 μL 26 nM fluorescein labeled probe plus 0.2 nM anti-6×His-terbium labeled antibody (Medarex, labeled by Cisbio) in assay buffer (20 mM Hepes pH 7.5, 150 mM NaCl, 10 mM MgCl2, 2 mM DTT, 50 μg/mL BSA, and 0.015% Brij 35) was added 10 μL recombinant human His-tagged Tyk2 pseudokinase domain (His-TVMV-Tyk2, 575-869) to a final concentration of 0.5 nM. After 1 h at room temperature, the HTRF signal (ratio of fluorescence intensities at emission wavelengths for fluorescein acceptor at 520 nm and terbium donor at 495 nm) was measured on an Envision Plate Reader. Percent inhibition was calculated by comparison to a control without inhibitor and a control without protein. Dose response curves were generated to determine the concentration required for inhibiting 50% of the HTRF signal (EC50).

[2] = tested on: IL-23 stimulated Kit225 T cells (STAT-dependent luciferase reporter); assay: Kit225 T cell assay, IL-23 stimulated STAT-dependent luciferase reporter; format: cell-based; settings: 20 ng/mL human recombinant IL-23, 5-6 hours
Procedure: (§1) Kit225 T cells with a stably-integrated STAT-dependent luciferase reporter were plated in RPMI (Gibco) containing 10% heat-inactivated FBS (Gibco) and 100 U/mL PenStrep (Gibco). The cells were then stimulated with either 20 ng/mL human recombinant IL-23 or 200 U/mL human recombinant IFNα (PBL InterferonSource) for 5-6 hours. Luciferase expression was measured using the STEADY-GLO® Luciferase Assay System (Promega) according to the manufacturer's instructions. Inhibition data were calculated by comparison to no inhibitor control wells for 0% inhibition and non-stimulated control wells for 100% inhibition. Dose response curves were generated to determine the concentration required to inhibit 50% of cellular response (IC50) as derived by non-linear regression analysis.

[3] = tested on: IFNα stimulated Kit225 T cells (STAT-dependent luciferase reporter); assay: Kit225 T cell assay, IFNα stimulated STAT-dependent luciferase reporter; format: cell-based; settings: 200 U/mL human recombinant IFNα, 5-6 hours
Procedure: as §1

T1 sequence (P29597 with tags, fused parts or gaps): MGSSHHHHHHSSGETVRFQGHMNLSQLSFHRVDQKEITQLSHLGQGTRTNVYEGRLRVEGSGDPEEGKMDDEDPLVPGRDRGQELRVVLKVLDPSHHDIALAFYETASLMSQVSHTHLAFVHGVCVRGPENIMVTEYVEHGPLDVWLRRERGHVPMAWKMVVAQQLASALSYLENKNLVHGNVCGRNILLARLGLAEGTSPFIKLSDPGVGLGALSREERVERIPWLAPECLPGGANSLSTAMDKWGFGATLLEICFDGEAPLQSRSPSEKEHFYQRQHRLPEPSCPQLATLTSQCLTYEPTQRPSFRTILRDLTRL

| Compound | EC50 [1] | IC50 [2] | IC50 [3] |
| --- | --- | --- | --- |
| Cc1cnc(Nc2cc(Nc3ncccc3S(C)(=O)=O)c3nc(C)[nH]c3n2)cn1 [Example 48, 7-N-(3-methanesulfonylpyridin-2-yl)-2-methyl-5-N-(5-methylpyrazin-2-yl)-3H-imidazo[4,5-b]pyridine-5,7-diamine] | 0.6 nM | 742 nM | 307 nM |
| Cc1nc2c(Nc3ncccc3S(C)(=O)=O)cc(NC(=O)C3CC3)nc2[nH]1 [Example 47, N-{7-[(3-methanesulfonylpyridin-2-yl)amino]-2-methyl-3H-imidazo[4,5-b]pyridin-5-yl}cyclopropanecarboxamide] | 0.4 nM | 698 nM | 403 nM |
| Cc1cccc(Nc2cc(Nc3ncccc3S(C)(=O)=O)c3nc(C)[nH]c3n2)n1 [Example 49, 7-N-(3-methanesulfonylpyridin-2-yl)-2-methyl-5-N-(6-methylpyridin-2-yl)-3H-imidazo[4,5-b]pyridine-5,7-diamine] | 0.7 nM | 107 nM | 98 nM |
